Data published in patent US7138361B2, “Herbicidal heterocycles” (E. I. du Pont de Nemours and Company, priority 2000, dated 2006).

Columns and labels:
Format in all cases: in vivo
[1] = system: smallflower flatsedge (Cyperus difformis); assay: Test B flooded paddy test; conditions: Rate 1000 g/ha, scale of 0 to 100 where 0 is no effect and 100 is complete control, visually evaluated after 13 to 15 days
Outline: (§1)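 Visual rating on a 0–100 scale, where 100 is complete control, made after 13 to 15 days in a greenhouse by comparison with untreated controls. Species treated in the flooded paddy were at the 2-leaf stage: barnyardgrass, duck salad, smallflower flatsedge and rice.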

[2] = system: duck salad (Heteranthera limosa); assay: Test B flooded paddy test; conditions: Rate 1000 g/ha, scale of 0 to 100 where 0 is no effect and 100 is complete control, visually evaluated after 13 to 15 days
Outline: as §1

[3] = system: barnyardgrass (Echinochloa crus-galli); assay: Test B flooded paddy test; conditions: Rate 1000 g/ha, scale of 0 to 100 where 0 is no effect and 100 is complete control, visually evaluated after 13 to 15 days
Outline: as §1

rice (Oryza saliva) [4] = assay: Test B flooded paddy test; conditions: Rate 1000 g/ha, scale of 0 to 100 where 0 is no effect and 100 is complete control, visually evaluated after 13 to 15 days
Outline: as §1

[5] = system: smallflower flatsedge (Cyperus difformis); assay: Test C flooded paddy test; conditions: for Flatsedge plant response rating: Flooded Paddy, scale 0 to 100, 0 no effect, 100 complete control; for Plant response rating, Flatsedge: flooded paddy test, scale 0 to 100 (0 no effect, 100 complete control)
Outline: (§2)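 Greenhouse-maintained for 12 to 14 days after treatment, the paddy plants (2-leaf stage at application) were scored visually against controls. A score of 0 denotes no effect and a score of 100 denotes complete control.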

[6] = system: duck salad (Heteranthera limosa); assay: Test C flooded paddy test; conditions: for Ducksalad plant response rating: Flooded Paddy, scale 0 to 100, 0 no effect, 100 complete control; for Plant response rating, Ducksalad: flooded paddy test, scale 0 to 100 (0 no effect, 100 complete control)
Outline: as §2

[7] = system: barnyardgrass (Echinochloa crus-galli); assay: Test C flooded paddy test; conditions: for Barnyardgrass plant response rating: Flooded Paddy, scale 0 to 100, 0 no effect, 100 complete control; for Plant response rating, Barnyardgrass: flooded paddy test, scale 0 to 100 (0 no effect, 100 complete control)
Outline: as §2

rice (Oryza saliva) [8] = assay: Test C flooded paddy test; conditions: for Rice plant response rating: Flooded Paddy, scale 0 to 100, 0 no effect, 100 complete control; for Plant response rating, Rice: flooded paddy test, scale 0 to 100 (0 no effect, 100 complete control)
Outline: as §2

corn (Zea mays) [9] = assay: Test B preemergence
Outline: (§3)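 Seeds were planted and sprayed preemergence with test chemical in a non-phytotoxic solvent mixture containing surfactant; postemergence plants (2 to 18 cm, 1- to 4-leaf stage) received the same formulation. Greenhouse hold 13 to 15 days, then visual rating versus untreated controls on a 0–100 scale (0 no effect, 100 complete control).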

[10] = system: crabgrass (Digitaria sanguinalis); assay: Test B preemergence
Outline: as §3

[11] = system: Surinam grass (Brachiaria decumbens); assay: Test B preemergence
Outline: as §3

[12] = system: morning glory (Ipomoea hederacea); assay: Test B preemergence
Outline: as §3

[13] = system: pigweed (Amaranthus retroflexus); assay: Test B preemergence
Outline: as §3

[14] = system: cocklebur (Xanthium strumarium); assay: Test B preemergence
Outline: as §3

[15] = system: velvetleaf (Abutilon theophrasti); assay: Test B preemergence; conditions: scale 0 to 100, 0 no effect, 100 complete control
Outline: as §3

[16] = system: lambsquarters (Chenopodium album); assay: Test B preemergence
Outline: as §3

[17] = system: giant foxtail (Setaria faberii); assay: Test B preemergence
Outline: as §3

[18] = system: barnyardgrass (Echinochloa crus-galli); assay: Test B preemergence
Outline: as §3

rice (Oryza saliva) [19] = assay: Test B preemergence
Outline: as §3

corn (Zea mays) [20] = assay: Test B postemergence; conditions: 13 to 15 days
Outline: as §3

[21] = system: crabgrass (Digitaria sanguinalis); assay: Test B postemergence; conditions: 13 to 15 days
Outline: as §3

[22] = system: Surinam grass (Brachiaria decumbens); assay: Test B postemergence; conditions: 13 to 15 days
Outline: as §3

[23] = system: morning glory (Ipomoea hederacea); assay: Test B postemergence; conditions: 13 to 15 days
Outline: as §3

[24] = system: wheat (Triticum aestivum); assay: Test B postemergence; conditions: 13 to 15 days
Outline: as §3

[25] = system: pigweed (Amaranthus retroflexus); assay: Test B postemergence; conditions: 13 to 15 days
Outline: as §3

[26] = system: cocklebur (Xanthium strumarium); assay: Test B postemergence; conditions: 13 to 15 days
Outline: as §3

wild oat (Avena fatua) = assay: Test B postemergence; conditions: 13 to 15 days
Outline: as §3

[27] = system: velvetleaf (Abutilon theophrasti); assay: Test B postemergence; conditions: 13 to 15 days
Outline: as §3

[28] = system: lambsquarters (Chenopodium album); assay: Test B postemergence; conditions: 13 to 15 days
Outline: as §3

[29] = system: blackgrass (Alopecurus myosuroides); assay: Test B postemergence; conditions: 13 to 15 days
Outline: as §3

[30] = system: giant foxtail (Setaria faberii); assay: Test B postemergence; conditions: 13 to 15 days
Outline: as §3

[31] = system: barnyardgrass (Echinochloa crus-galli); assay: Test B postemergence; conditions: 13 to 15 days
Outline: as §3

[32] = Preemergence, Rate 500 g/ha, scale 0 to 100, 0 no effect, 100 complete control
[33] = preemergence, Rate 125 g/ha, scale of 0 to 100 where 0 is no effect and 100 is complete control, 13 to 15 days
[34] = Rate 125 g/ha, scale 0 (no effect) to 100 (complete control)
[35] = Rate 500 g/ha, scale 0 to 100, 0 is no effect, 100 is complete control
[36] = preemergence, Rate 125 g/ha, scale 0 to 100, 0 no effect, 100 complete control

CCC(C)Oc1ccn(C2CCN(c3cccc(C(F)(F)F)c3)C2=O)n1 (stereo not drawn) [Compound 58]
Plant response rating, Flatsedge [1]: 80
Plant response rating, Ducksalad [2]: 70
Plant response rating, Barnyardgrass [3]: 90
Plant response rating, Rice (rice (Oryza saliva) [4]): 20
Flatsedge plant response rating ([5]; Rate 250 g/ha): 0
Flatsedge plant response rating ([5]; Rate 500 g/ha): 30
Plant response rating, Flatsedge ([5]; Rate 62 g/ha): 0
Plant response rating, Flatsedge ([5]; Rate 125 g/ha): 0
Ducksalad plant response rating ([6]; Rate 250 g/ha): 0
Ducksalad plant response rating ([6]; Rate 500 g/ha): 0
Plant response rating, Ducksalad ([6]; Rate 62 g/ha): 0
Plant response rating, Ducksalad ([6]; Rate 125 g/ha): 0
Barnyardgrass plant response rating ([7]; Rate 250 g/ha): 0
Barnyardgrass plant response rating ([7]; Rate 500 g/ha): 20
Plant response rating, Barnyardgrass ([7]; Rate 62 g/ha): 0
Plant response rating, Barnyardgrass ([7]; Rate 125 g/ha): 0
Rice plant response rating (rice (Oryza saliva) [8]; Rate 250 g/ha): 0
Rice plant response rating (rice (Oryza saliva) [8]; Rate 500 g/ha): 0
Plant response rating, Rice (rice (Oryza saliva) [8]; Rate 62 g/ha): 0
Plant response rating, Rice (rice (Oryza saliva) [8]; Rate 125 g/ha): 0
Plant response rating, Corn (corn (Zea mays) [9]; [32]): 0
Plant response rating, Corn (corn (Zea mays) [9]; [33]): 0
Plant response rating, Crabgrass [10, 32]: 80
Plant response rating, Crabgrass [10, 33]: 0
Plant response rating, Surinam grass [11, 32]: 0
Plant response rating, Surinam grass [11, 33]: 0
Plant response rating, Morningglory [12, 32]: 0
Plant response rating, Morningglory [12, 33]: 0
Plant response rating, Pigweed [13, 32]: 0
Plant response rating, Pigweed [13, 33]: 0
Plant response rating, Cocklebur [14, 32]: 0
Plant response rating, Cocklebur [14, 33]: 0
Plant response rating, Velvetleaf ([15]; Preemergence, Rate 500 g/ha): 0
Plant response rating, Lambsquarters [16, 32]: 0
Plant response rating, Lambsquarters [16, 33]: 0
Plant response rating, Foxtail, Giant [17, 32]: 70
Plant response rating, Foxtail, Giant [17, 33]: 0
Plant response rating, Barnyardgrass [18, 32]: 70
Plant response rating, Barnyardgrass [18, 33]: 0
Plant response rating, Rice (rice (Oryza saliva) [19]; [32]): 0
Plant response rating, Rice (rice (Oryza saliva) [19]; [33]): 0
Plant response rating, Corn (corn (Zea mays) [20]; [34]): 0
Plant response rating, Corn (corn (Zea mays) [20]; [35]): 0
Plant response rating, Crabgrass [21, 34]: 0
Plant response rating, Crabgrass [21, 35]: 0
Plant response rating, Surinam grass [22, 34]: 0
Plant response rating, Surinam grass [22, 35]: 0
Plant response rating, Morningglory [23, 34]: 0
Plant response rating, Morningglory [23, 35]: 0
Plant response rating, Wheat [24, 34]: 0
Plant response rating, Wheat [24, 35]: 0
Plant response rating, Pigweed [25, 34]: 0
Plant response rating, Pigweed [25, 35]: 0
Plant response rating, Cocklebur [26, 34]: 0
Plant response rating, Cocklebur [26, 35]: 0
Plant response rating, Wild Oat (wild oat (Avena fatua); [34]): 0
Plant response rating, Wild Oat (wild oat (Avena fatua); [35]): 0
Plant response rating, Velvetleaf [27, 34]: 0
Plant response rating, Velvetleaf [27, 35]: 0
Plant response rating, Lambsquarters [28, 34]: 0
Plant response rating, Lambsquarters [28, 35]: 0
Plant response rating, Blackgrass [29, 34]: 0
Plant response rating, Blackgrass [29, 35]: 0
Plant response rating, Foxtail, Giant [30, 34]: 0
Plant response rating, Foxtail, Giant [30, 35]: 0
Plant response rating, Barnyardgrass [31, 34]: 0
Plant response rating, Barnyardgrass [31, 35]: 0

CC(C)c1ccn(C2SCN(c3cccc(C(F)(F)F)c3)C2=O)n1 (stereo not drawn) [Compound 23]
Plant response rating, Flatsedge [1]: 0
Plant response rating, Ducksalad [2]: 100
Plant response rating, Barnyardgrass [3]: 0
Plant response rating, Rice (rice (Oryza saliva) [4]): 0
Flatsedge plant response rating ([5]; Rate 250 g/ha): 100
Flatsedge plant response rating ([5]; Rate 500 g/ha): 100
Plant response rating, Flatsedge ([5]; Rate 62 g/ha): 100
Plant response rating, Flatsedge ([5]; Rate 125 g/ha): 100
Ducksalad plant response rating ([6]; Rate 250 g/ha): 100
Ducksalad plant response rating ([6]; Rate 500 g/ha): 100
Plant response rating, Ducksalad ([6]; Rate 62 g/ha): 50
Plant response rating, Ducksalad ([6]; Rate 125 g/ha): 80
Barnyardgrass plant response rating ([7]; Rate 250 g/ha): 100
Barnyardgrass plant response rating ([7]; Rate 500 g/ha): 100
Plant response rating, Barnyardgrass ([7]; Rate 62 g/ha): 80
Plant response rating, Barnyardgrass ([7]; Rate 125 g/ha): 80
Rice plant response rating (rice (Oryza saliva) [8]; Rate 250 g/ha): 70
Rice plant response rating (rice (Oryza saliva) [8]; Rate 500 g/ha): 100
Plant response rating, Rice (rice (Oryza saliva) [8]; Rate 62 g/ha): 20
Plant response rating, Rice (rice (Oryza saliva) [8]; Rate 125 g/ha): 20
Plant response rating, Corn (corn (Zea mays) [9]; [32]): 0
Plant response rating, Corn (corn (Zea mays) [9]; [36]): 0
Plant response rating, Crabgrass [10, 32]: 100
Plant response rating, Crabgrass [10, 36]: 70
Plant response rating, Surinam grass [11, 32]: 20
Plant response rating, Surinam grass [11, 36]: 0
Plant response rating, Morningglory [12, 32]: 60
Plant response rating, Morningglory [12, 36]: 0
Plant response rating, Pigweed [13, 32]: 100
Plant response rating, Pigweed [13, 36]: 100
Plant response rating, Cocklebur [14, 32]: 20
Plant response rating, Cocklebur [14, 36]: 0
Plant response rating, Velvetleaf ([15]; Preemergence, Rate 500 g/ha): 0
Plant response rating, Velvetleaf ([15]; preemergence, Rate 125 g/ha): 0
Plant response rating, Lambsquarters [16, 32]: 100
Plant response rating, Lambsquarters [16, 36]: 100
Plant response rating, Foxtail, Giant [17, 32]: 50
Plant response rating, Foxtail, Giant [17, 36]: 50
Plant response rating, Barnyardgrass [18, 32]: 100
Plant response rating, Barnyardgrass [18, 36]: 0
Plant response rating, Rice (rice (Oryza saliva) [19]; [32]): 30
Plant response rating, Rice (rice (Oryza saliva) [19]; [36]): 0
Plant response rating, Corn (corn (Zea mays) [20]; [34]): 20
Plant response rating, Corn (corn (Zea mays) [20]; [35]): 50
Plant response rating, Crabgrass [21, 34]: 20
Plant response rating, Crabgrass [21, 35]: 40
Plant response rating, Surinam grass [22, 34]: 20
Plant response rating, Surinam grass [22, 35]: 20
Plant response rating, Morningglory [23, 34]: 20
Plant response rating, Morningglory [23, 35]: 80
Plant response rating, Wheat [24, 34]: 0
Plant response rating, Wheat [24, 35]: 0
Plant response rating, Pigweed [25, 34]: 70
Plant response rating, Pigweed [25, 35]: 100
Plant response rating, Cocklebur [26, 34]: 40
Plant response rating, Cocklebur [26, 35]: 80
Plant response rating, Wild Oat (wild oat (Avena fatua); [34]): 0
Plant response rating, Wild Oat (wild oat (Avena fatua); [35]): 0
Plant response rating, Velvetleaf [27, 34]: 20
Plant response rating, Velvetleaf [27, 35]: 30
Plant response rating, Lambsquarters [28, 34]: 80
Plant response rating, Lambsquarters [28, 35]: 100
Plant response rating, Blackgrass [29, 34]: 0
Plant response rating, Blackgrass [29, 35]: 20
Plant response rating, Foxtail, Giant [30, 34]: 20
Plant response rating, Foxtail, Giant [30, 35]: 80
Plant response rating, Barnyardgrass [31, 34]: 20
Plant response rating, Barnyardgrass [31, 35]: 90
